Measurements from ChEMBL document CHEMBL1159013, “Additional bioactive compounds and trilobacin, a novel highly cytotoxic acetogenin, from the bark of Asimina triloba” (J Nat Prod, 1992).
Converted amounts (≈) assume the structure as drawn.

What was measured:
[1] = system: A549; assay: Cytotoxicity against human A549 cells after 7 days; type: functional; conditions: for EC50: Homo sapiens, A549, 168 h, read-out: ED50 (the source's name)
[2] = Toxicity against brine shrimp larvae; type: organism-based; conditions: artemia, in vivo
[3] = system: MCF7; assay: Cytotoxicity against human MCF7 cells after 7 days; type: functional; conditions: MCF7, 168 h, read-out: ED50 (the source's name)
[4] = system: HT-29; assay: Cytotoxicity against human HT-29 cells after 7 days; type: functional; conditions: for EC50: Homo sapiens, HT-29, 168 h, read-out: ED50 (the source's name)
[5] = system: A549; assay: Growth inhibition of human A549 cells after 3 days; type: functional; conditions: A549, 72 h
[6] = system: EKVX; assay: Growth inhibition of human EKVX cells after 3 days; type: functional; conditions: 72 h
[7] = system: HOP-62; assay: Growth inhibition of human HOP62 cells after 3 days; type: functional; conditions: HOP-62, 72 h
[8] = system: HOP-92; assay: Growth inhibition of human HOP92 cells after 3 days; type: functional; conditions: HOP-92, 72 h
[9] = system: NCI-H322M; assay: Growth inhibition of human NCI-H322M cells after 3 days; type: functional; conditions: 72 h
[10] = system: NCI-H460; assay: Growth inhibition of human NCI-H460 cells after 3 days; type: functional; conditions: NCI-H460, 72 h
[11] = Growth inhibition of human LXFL529 cells after 3 days; type: functional; conditions: LXFL 529, 72 h
[12] = system: DMS-273; assay: Growth inhibition of human DMS273 cells after 3 days; type: functional; conditions: DMS-273, 72 h
[13] = system: COLO 205; assay: Growth inhibition of human COLO205 cells after 3 days; type: functional; conditions: COLO 205, 72 h
[14] = system: DLD-1; assay: Growth inhibition of human DLD1 cells after 3 days; type: functional; conditions: DLD-1, 72 h
[15] = system: HCC 2998; assay: Growth inhibition of human HCC2998 cells after 3 days; type: functional; conditions: HCC 2998, 72 h
[16] = system: HT-29; assay: Growth inhibition of human HT-29 cells after 3 days; type: functional; conditions: HT-29, 72 h
[17] = system: KM-20L2; assay: Growth inhibition of human KM20L2 cells after 3 days; type: functional; conditions: KM-20L2, 72 h
[18] = system: SW-620; assay: Growth inhibition of human SW620 cells after 3 days; type: functional; conditions: SW-620, 72 h
[19] = system: SF-268; assay: Growth inhibition of human SF268 cells after 3 days; type: functional; conditions: SF-268, 72 h
[20] = system: SF-539; assay: Growth inhibition of human SF539 cells after 3 days; type: functional; conditions: SF-539, 72 h
[21] = system: SNB-75; assay: Growth inhibition of human SNB75 cells after 3 days; type: functional; conditions: SNB-75, 72 h
[22] = system: SNB-78; assay: Growth inhibition of human SNB78 cells after 3 days; type: functional; conditions: SNB-78, 72 h
[23] = system: U-251; assay: Growth inhibition of human U251 cells after 3 days; type: functional; conditions: U-251, 72 h
[24] = system: XF498; assay: Growth inhibition of human XF498 cells after 3 days; type: functional; conditions: XF498, 72 h
[25] = system: LOX IMVI; assay: Growth inhibition of human LOXIMVI cells after 3 days; type: functional; conditions: 72 h
[26] = system: Malme-3M; assay: Growth inhibition of human MALME-3M cells after 3 days; type: functional; conditions: 72 h
[27] = system: M14; assay: Growth inhibition of human M14 cells after 3 days; type: functional; conditions: M14, 72 h
[28] = system: M19-MEL; assay: Growth inhibition of human M19-MEL cells after 3 days; type: functional; conditions: 72 h
[29] = system: SK-MEL-2; assay: Growth inhibition of human SK-MEL-2 cells after 3 days; type: functional; conditions: SK-MEL-2, 72 h
[30] = system: SK-MEL-28; assay: Growth inhibition of human SK-MEL-28 cells after 3 days; type: functional; conditions: SK-MEL-28, 72 h
[31] = system: UACC-62; assay: Growth inhibition of human UACC62 cells after 3 days; type: functional; conditions: UACC-62, 72 h
[32] = system: IGROV-1; assay: Growth inhibition of human IGROV1 cells after 3 days; type: functional; conditions: IGROV-1, 72 h
[33] = system: OVCAR-3; assay: Growth inhibition of human OVCAR-3 cells after 3 days; type: functional; conditions: OVCAR-3, 72 h
[34] = system: OVCAR-5; assay: Growth inhibition of human OVCAR5 cells after 3 days; type: functional; conditions: OVCAR-5, 72 h
[35] = system: OVCAR-8; assay: Growth inhibition of human OVCAR8 cells after 3 days; type: functional; conditions: OVCAR-8, 72 h
[36] = system: SK-OV-3; assay: Growth inhibition of human SKOV3 cells after 3 days; type: functional; conditions: SK-OV-3, 72 h
[37] = system: 786-0; assay: Growth inhibition of human 786-0 cells after 3 days; type: functional; conditions: 786-0, 72 h
[38] = system: A498; assay: Growth inhibition of human A498 cells after 3 days; type: functional; conditions: A498, 72 h
[39] = system: CAKI-1; assay: Growth inhibition of human Caki1 cells after 3 days; type: functional; conditions: CAKI-1, 72 h
[40] = Growth inhibition of human RXF631 cells after 3 days; type: functional; conditions: RXF 631, 72 h
[41] = system: SN12C; assay: Growth inhibition of human SN12C cells after 3 days; type: functional; conditions: 72 h
[42] = system: TK-10; assay: Growth inhibition of human TK10 cells after 3 days; type: functional; conditions: TK-10, 72 h
[43] = system: CCRF-CEM; assay: Growth inhibition of human CCRF-CEM cells after 3 days; type: functional; conditions: 72 h
[44] = system: MOLT-4; assay: Growth inhibition of human MOLT4 cells after 3 days; type: functional; conditions: MOLT-4, 72 h
[45] = system: SR; assay: Growth inhibition of human SR cells after 3 days; type: functional; conditions: 72 h

**Q.** What does the source list for O=C(/C=C/c1ccc(O)cc1)NCCc1ccc(O)cc1 [N-P-COUMAROYL TYRAMINE]?
**A.** EC50 [1]: 3240 ng/mL (≈ 11400 nM); LC50 [2]: 6700 ng/mL (≈ 23600 nM); EC50 [3]: 716 ng/mL (≈ 2530 nM); EC50 [4]: 674 ng/mL (≈ 2380 nM)

**Q.** Which results are given for COc1cc(/C=C/C(=O)NCCc2ccc(O)cc2)ccc1O [N-TRANS-FERULOYL TYRAMINE]?
**A.** EC50 [1]: 13400 ng/mL (≈ 42600 nM); LC50 [2]: 6700 ng/mL (≈ 21400 nM); EC50 [3]: 4760 ng/mL (≈ 15200 nM); EC50 [4]: 23600 ng/mL (≈ 75300 nM)

**Q.** Which EC50 [1] does the source give for COc1cc([C@H]2OC[C@H]3[C@@H]2CO[C@@H]3c2cc(OC)c(O)c(OC)c2)cc(OC)c1O [SYRINGARESINOL] here?
**A.** 14900 ng/mL (≈ 35600 nM)

**Q.** What about the LC50 [2] of the same molecule?
**A.** 13600 ng/mL (≈ 32500 nM)

**Q.** And the EC50 [3]?
**A.** 3690 ng/mL (≈ 8820 nM)

**Q.** And the EC50 [4]?
**A.** 15500 ng/mL (≈ 37000 nM)

**Q.** With CCCCCCCCCC[C@@H](O)[C@H]1CC[C@@H]([C@H]2CC[C@H]([C@H](O)CCCCCCCCCC[C@@H](O)CC3=C[C@H](C)OC3=O)O2)O1 [TRILOBACIN] as the molecule, how does the GI50 [5] read?
**A.** 0.00164 ng/mL (≈ 0.00263 nM)

**Q.** What about the GI50 [6] of the same molecule?
**A.** 0.002 ng/mL (≈ 0.00321 nM)

**Q.** What about the GI50 [7] of the same molecule?
**A.** 0.00234 ng/mL (≈ 0.00376 nM)

**Q.** What about the GI50 [8] of the same molecule?
**A.** 0.00276 ng/mL (≈ 0.00443 nM)

**Q.** And the GI50 [9]?
**A.** 4.06 µM

**Q.** And the GI50 [10]?
**A.** 0.00293 ng/mL (≈ 0.0047 nM)

**Q.** And the GI50 [11]?
**A.** 0.00217 ng/mL (≈ 0.00348 nM)

**Q.** And the GI50 [12]?
**A.** 0.00177 ng/mL (≈ 0.00284 nM)

**Q.** What about the GI50 [13] of the same molecule?
**A.** 0.00349 ng/mL (≈ 0.0056 nM)

**Q.** What about the GI50 [14] of the same molecule?
**A.** 0.0027 ng/mL (≈ 0.00433 nM)

**Q.** And the GI50 [15]?
**A.** 0.00292 ng/mL (≈ 0.00469 nM)

**Q.** And the GI50 [16]?
**A.** 0.00216 ng/mL (≈ 0.00347 nM)

**Q.** And the GI50 [17]?
**A.** 0.00375 ng/mL (≈ 0.00602 nM)

**Q.** What about the GI50 [18] of the same molecule?
**A.** 2.64 µM

**Q.** And the GI50 [19]?
**A.** 1.7 µM

**Q.** And the GI50 [20]?
**A.** 0.00138 ng/mL (≈ 0.00222 nM)

**Q.** And the GI50 [21]?
**A.** 0.00319 ng/mL (≈ 0.00512 nM)

**Q.** What about the GI50 [22] of the same molecule?
**A.** 2.05 µM

**Q.** What about the GI50 [23] of the same molecule?
**A.** 4.33 µM

**Q.** And the GI50 [24]?
**A.** 0.00203 ng/mL (≈ 0.00326 nM)

**Q.** And the GI50 [25]?
**A.** 0.0012 ng/mL (≈ 0.00193 nM)

**Q.** What about the GI50 [26] of the same molecule?
**A.** 0.00144 ng/mL (≈ 0.00231 nM)

**Q.** And the GI50 [27]?
**A.** 0.0104 ng/mL (≈ 0.0167 nM)

**Q.** What about the GI50 [28] of the same molecule?
**A.** 0.00263 ng/mL (≈ 0.00422 nM)

**Q.** What about the GI50 [29] of the same molecule?
**A.** 0.00228 ng/mL (≈ 0.00366 nM)

**Q.** And the GI50 [30]?
**A.** 0.00201 ng/mL (≈ 0.00323 nM)

**Q.** And the GI50 [31]?
**A.** 2.67 µM

**Q.** And the GI50 [32]?
**A.** 0.00481 ng/mL (≈ 0.00772 nM)

**Q.** And the GI50 [33]?
**A.** 0.00109 ng/mL (≈ 0.00175 nM)

**Q.** What about the GI50 [34] of the same molecule?
**A.** 4.33 µM

**Q.** And the GI50 [35]?
**A.** 0.00293 ng/mL (≈ 0.0047 nM)

**Q.** And the GI50 [36]?
**A.** 8.2 µM

**Q.** And the GI50 [37]?
**A.** 0.0022 ng/mL (≈ 0.00353 nM)

**Q.** What about the GI50 [38] of the same molecule?
**A.** 0.00686 ng/mL (≈ 0.011 nM)

**Q.** What about the GI50 [39] of the same molecule?
**A.** 0.00883 ng/mL (≈ 0.0142 nM)

**Q.** What about the GI50 [40] of the same molecule?
**A.** 1.8 µM

**Q.** What about the GI50 [41] of the same molecule?
**A.** 1.64 µM

**Q.** And the GI50 [42]?
**A.** 7 µM

**Q.** And the ED50 [1]?
**A.** 8.02 ×10⁻⁴ ug/ml

**Q.** What about the LC50 [2] of the same molecule?
**A.** 8.7 ng/mL (≈ 14 nM)

**Q.** And the EC50 [3]?
**A.** 329 ng/mL (≈ 528 nM)

**Q.** And the ED50 [4]?
**A.** <1 ×10⁻¹⁵ ug/ml

**Q.** What about the GI50 [43] of the same molecule?
**A.** 0.0017 ng/mL (≈ 0.00273 nM)

**Q.** What about the GI50 [44] of the same molecule?
**A.** 0.00116 ng/mL (≈ 0.00186 nM)

**Q.** What about the GI50 [45] of the same molecule?
**A.** 1.09 µM
